From patent US5565330A, “Method for removing N-terminal dipeptides from precursor polypeptides with dipeptidylaminopeptidase from Dictyostelium discoideum” (Eli Lilly and Company, priority 1995, dated 1996)

Tests used:
[1] = target: T1, bovine spleen DAP-I (Bos taurus, UniProt Q3ZCJ8); assay: Inhibition of GFpNA cleavage by sulfhydryl modifying agents; format: biochemical; details: 5 mM inhibitor, 15 minutes at room temperature, pH 7; then 4 mM GFpNA, pH 3.5, 37 degrees; read-out: decrease (inhibition) of bovine DAP-I's rate of cleavage of GFpNA
T1 construct: bovine spleen DAP-I; from tissue; host or cells: bovine spleen
Procedure: (§1) dDAP activity is normally monitored by following the cleavage of the chromogenic substrate Gly-Phe para-nitroanilide (GF-pNA). Typically the assay is performed by diluting the enzyme 11 fold into 1.0 ml of 4 mM GFpNA adjusted to pH 3.5. The rate of cleavage of GF dipeptide was monitored at 37° C. by measuring the increase in absorbance at 405 nm. One unit of activity leads to a 0.90 OD change per minute under these conditions. Unit/ml estimates can be made assuming an extinction coefficient for free pNA of 9.9 mM-1 cm-1 at 405 nm.
(§2) The inhibition profile of dDAP toward the substrate GFpNA was compared to that of bovine DAP-I using iodoacetamide and potassium tetrathionate, sulfhydryl modifying agents known to inhibit the activity of DAP-I. Samples of dDAP or bovine spleen DAP-I were incubated for 15 minutes at room temperature in final concentrations of 0, 0.5, 5.0 or 50 mM of either inhibitor at pH 7 in 100 mM Tris buffer. The incubated solutions were then diluted 21-fold with 4 mM GFpNA, pH 3.5. The rate of cleavage was monitored by measuring the increase in absorbance at 405 nm at 37 degrees centigrade. Bovine DAP-I's rate of cleavage of GFpNA was decreased more than 90% by the exposure to 5 mM iodoacetamide and was 95% inhibited by 5 mM potassium tetrathionate.

[2] = test system: dDAP; assay: as above; format: biochemical, Dictyostelium discoideum; details: 0.5, 5.0 or 50 mM inhibitor, 15 minutes at room temperature, pH 7; then 4 mM GFpNA, pH 3.5
Procedure: as §1, §2

[3] = Cleavage of Arg-Arg-β-naphthylamide (fluorescence); format: biochemical; details: 0.25 mM RR-BNA, pH 3.5 or pH 5.0, about 15 milliunit/ml enzyme
Procedure: (§3) About 0.25 mM RR-BNA or 0.25 mM Benzyloxycarbonyl-RR-BNA (Z-RR-BNA) was prepared in either 100 mM acetic acid, pH 3.5, or 100 mM citrate buffer, pH 5.0. To 2 ml of substrate was added dDAP or bovine DAP-I (about 15 milliunit/ml solution). Rates of cleavage (monitoring fluorescence increase at 410 nm with excitation at 340 nm) were monitored. […] The pH optimum for cleavage of RR-BNA was probed by monitoring the rate of RR-BNA cleavage using a buffer system consisting of 50 mM acetic acid and 50 mM citrate. Various pHs were achieved using HCl or NaOH and 1.5 ml volumes were made 2.0 with 0.5 ml of a 1 mM stock solution of RR-BNA (final concentration of about 0.25 mM). dDAP was added (to about 15 mU/ml) and the rates of cleavage were determined.

[4] = Cleavage of blocked Benzyloxycarbonyl-RR-BNA (fluorescence); format: biochemical; details: 0.25 mM Z-RR-BNA, pH 3.5 or pH 5.0
Procedure: as §3

[5] = test system: Met(O)-Arg-hPI; assay: Conversion of oxidized methionyl Met(O)-Arg-hPI (HPLC); format: biochemical, human; details: X is Arg, Phe and Tyr
Procedure: Met-Arg-Human Proinsulin (Met-Arg-hPI) was produced as an insoluble protein in the cytoplasm of E. coli. The insoluble protein was solubilized in 7M urea. The protein was purified by ion exchange chromatography. The Met-Arg-hPI was sulfitolyzed, solvent exchanged and folded in order to form the native disulfide bond pairs and native tertiary structure. The material was further purified using reverse phase chromatography.
The Met-Arg-hPI was about 24 mg/ml (in approximately 20 mM glycine buffer, pH 3.5). About 2.4 mg of this material was incubated with 0.19 milliunits of dDAP at pH 3.5. The reaction was allowed to proceed at room temperature. Periodically, aliquots were removed and diluted with 10% phosphoric acid. This material was injected onto a neutral reverse phase HPLC system to monitor for the disappearance of Met-Arg-hPI or Met(O)-Arg-hPI and the subsequent production of hPI. In addition, aliquots were diluted into an appropriate diluent to allow for HPLC monitoring of appearance of either the Met-Arg or Met(O)-Arg dipeptides. Approximately 60% of the Met-Arg-hPI was converted to hPI in 8 hours. […] The rate of cleavage of both substrates was similar. […] The ability of dDAP to cleave the oxidized Met(O)-X substrate has distinct processing advantages over enzymes unable to perform this cleavage.

T1 sequence (Q3ZCJ8 231-394 limits assumed): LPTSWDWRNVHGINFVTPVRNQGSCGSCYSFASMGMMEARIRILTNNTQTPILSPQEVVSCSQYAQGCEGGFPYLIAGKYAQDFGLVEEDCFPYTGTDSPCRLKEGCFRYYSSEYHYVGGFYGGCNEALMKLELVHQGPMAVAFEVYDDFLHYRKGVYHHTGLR
T1 sequence (Q3ZCJ8 395-463 limits assumed): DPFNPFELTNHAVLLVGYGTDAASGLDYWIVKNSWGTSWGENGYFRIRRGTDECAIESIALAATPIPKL
T1 sequence (Q3ZCJ8 25-143 limits assumed): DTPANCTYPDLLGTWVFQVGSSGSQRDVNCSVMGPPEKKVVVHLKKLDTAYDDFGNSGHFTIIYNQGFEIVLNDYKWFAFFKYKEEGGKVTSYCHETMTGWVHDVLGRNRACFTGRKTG

Compound	inhibition at 5000 µM [1] [%]	inhibition of dDAP cleavage of GFpNA [2]	cleavage of RR-BNA [3]	cleavage of blocked amino group Z-RR-BNA [4]	cleavage of Met(O)-X-derivatives of hPI [5]
NC(=O)CI [iodoacetamide]	> 90	no evidence of significant inhibition			
O=S(=O)([O-])SSS(=O)(=O)[O-].[K+].[K+] [potassium tetrathionate]	95	no evidence of significant inhibition			
bovine DAP-I: bovine spleen dipeptidylaminopeptidase I, comparison enzyme			unable to cleave	unable to cleave	unable to cleave
